From ChEMBL document CHEMBL5154881, “Discovery of First-in-Class TAK1-MKK3 Protein-Protein Interaction (PPI) Inhibitor (R)-STU104 for the Treatment of Ulcerative Colitis through Modulating TNF-α Production” (J Med Chem, 2022)
The source made the active and inactive calls. The calls are words filed in the database; no cut-off is given here.

Columns and labels:
[1] = test system: Mus musculus; assay: Anti-ulcerative colitis activity in IL-10-/- C57BL/6 mouse ulcerative colitis model assessed as animal survival at 3 to 10 mg/kg, IG via gavage for 8 weeks; format: functional, organism-based; details: dose 3-10 mg/kg
[2] = test system: Mus musculus; assay: Antiinflammatory activity against DSS-induced C57BL/6 mouse model of acute ulcerative colitis assessed as inhibition ratio of IL-6 mRNA expression in colon tissue at 3 mg/kg, IG via gavage measured after 7 days by RT-qPCR analysis relative to control; format: functional; parameters: scale not given: the % may be the effect or the level left; details: time 7 day
[3] = test system: Mus musculus; assay: Anti-ulcerative colitis activity in IL-10-/- C57BL/6 mouse model of ulcerative colitis assessed as histopathological score recovery ratio at 10 mg/kg, IG via gavage for 8 weeks relative to control; format: functional
[4] = test system: Mus musculus; assay: Antiinflammatory activity against DSS-induced C57BL/6 mouse model of acute ulcerative colitis assessed as inhibition ratio of IL-23 mRNA expression in colon tissue at 10 mg/kg, IG via gavage measured after 7 days by RT-qPCR analysis relative to control; format: functional; parameters: scale not given: the % may be the effect or the level left; details: time 7 day
[5] = test system: Mus musculus; assay: Anti-ulcerative colitis activity against DSS-induced ulcerative colitis C57BL/6 mouse model assessed as body weight recovery rate at 3 mg/kg, IG via gavage administered for 7 days and measured everyday relative to control; format: functional; details: time 7 day
[6] = test system: Mus musculus; assay: Antiinflammatory activity against DSS-induced C57BL/6 mouse model of acute ulcerative colitis assessed as inhibition of IL-1beta mRNA expression in colon tissue administered intragastrically via gavage measured after 7 days by RT-qPCR analysis; format: functional, organism-based; details: route ig, time 7.0 day, DDE = dose-dependent effect
[7] = Toxicity in C57 mouse assessed as lung damage at 50 to 500 mg/kg, po administered daily for 14 days; format: organism-based; details: in vivo, 336 h, dose 50-500 mg/kg, time 14 day
[8] = test system: Mus musculus; assay: Antiinflammatory activity against DSS-induced C57BL/6 mouse model of acute ulcerative colitis assessed as reduction in serum IL-1beta levels administered intragastrically via gavage measured after 7 days by ELISA; format: functional, organism-based; details: dose 1-10 mg/kg, route ig, time 7.0 day, DDE = dose-dependent effect
[9] = test system: RAW264.7; assay: Inhibition of MKK3-p38-elF4E signaling pathway in mouse RAW264.7 cells assessed as inhibition of LPS-induced p38 phosphorylation treated for 1.5 hrs followed by LPS treatment for 1 hr by Western blot analysis; format: cell-based; details: dose 3.125-12.5 µmol/L, time 2.5 hrs, DDE = dose-dependent effect
[10] = test system: Mus musculus; assay: Antiinflammatory activity against DSS-induced C57BL/6 mouse model of acute ulcerative colitis assessed as inhibition ratio of IL-23 protein expression at 10 mg/kg, IG via gavage measured after 7 days by ELISA relative to control; format: functional; parameters: scale not given: the % may be the effect or the level left; details: time 7 day
[11] = test system: Mus musculus; assay: Antiinflammatory activity against DSS-induced C57BL/6 mouse model of acute ulcerative colitis assessed as inhibition ratio of TNF-alpha mRNA expression in colon tissue at 3 mg/kg, IG via gavage measured after 7 days by RT-qPCR analysis relative to control; format: functional; parameters: scale not given: the % may be the effect or the level left; details: time 7 day
[12] = test system: RAW264.7; assay: Inhibition of MKK3-p38-elF4E signaling pathway in mouse RAW264.7 cells assessed as reduction in LPS-induced MK2 phosphorylation treated for 1.5 hrs followed by LPS treatment for 1 hr by Western blot analysis; format: cell-based; details: dose 3.125-12.5 µmol/L, time 2.5 hrs, DDE = dose-dependent effect
[13] = Bioavailability in 12 hr starved C57 mouse […] measured for 0.083 to 24 hrs post-dose by LC-MS-MS analysis; format: ADME, organism-based; details: in vivo, time 0.083-24 hrs
[14] = test system: Mus musculus; assay: Antiinflammatory activity against DSS-induced C57BL/6 mouse model of acute ulcerative colitis assessed as inhibition ratio of TNF-alpha mRNA expression in colon tissue at 1 mg/kg, IG via gavage measured after 7 days by RT-qPCR analysis relative to control; format: functional; parameters: scale not given: the % may be the effect or the level left; details: time 7 day
[15] = test system: Mus musculus; assay: Antiinflammatory activity against DSS-induced C57BL/6 mouse model of acute ulcerative colitis assessed as inhibition ratio of IL-1beta mRNA expression in colon tissue at 10 mg/kg, IG via gavage measured after 7 days by RT-qPCR analysis relative to control; format: functional; parameters: scale not given: the % may be the effect or the level left; details: time 7 day
[16] = test system: Mus musculus; assay: Anti-ulcerative colitis activity in DSS-induced C57BL/6 mouse ulcerative colitis model assessed as colon length recovery ratio at 1 mg/kg, IG via gavage measured after 7 days relative to control; format: functional; details: time 7 day
[17] = test system: Mus musculus; assay: Anti-ulcerative colitis activity against DSS-induced ulcerative colitis C57BL/6 mouse model assessed as reduction in DAI score at 1 mg/kg, IG via gavage administered for 7 days and measured everyday (reference value: 4.0); format: functional; details: time 7 day
[18] = test system: RAW264.7; assay: Inhibition of MKK3-p38-elF4E signaling pathway in mouse RAW264.7 cells assessed as reduction in LPS-induced elF4E phosphorylation treated for 1.5 hrs followed by LPS treatment for 1 hr by Western blot analysis; format: cell-based; details: dose 3.125-12.5 µmol/L, time 2.5 hrs, DDE = dose-dependent effect
[19] = Metabolic stability in dog liver microsomes assessed as intrinsic clearance at […] measured upto 60 mins in presence of NADPH by HPLC-MS analysis; format: ADME, Canis lupus familiaris, Microsome; parameters: dose or concentration left out as unconfirmed; details: 1 h
[20] = test system: Mus musculus; assay: Antiinflammatory activity against DSS-induced C57BL/6 mouse model of acute ulcerative colitis assessed as inhibition ratio of TNF-alpha mRNA expression in colon tissue at 10 mg/kg, IG via gavage measured after 7 days by RT-qPCR analysis relative to control; format: functional; parameters: scale not given: the % may be the effect or the level left; details: time 7 day
[21] = test system: Mus musculus; assay: Anti-ulcerative colitis activity against DSS-induced ulcerative colitis C57BL/6 mouse model assessed as body weight recovery rate at 1 mg/kg, IG via gavage administered for 7 days and measured everyday relative to control; format: functional; details: time 7 day
[22] = test system: Mus musculus; assay: Antiinflammatory activity against IL-10-/- C57BL/6 mouse model of acute ulcerative colitis assessed as decrease in serum IL-1beta levels administered intragastrically via gavage measured after 8 weeks by ELISA; format: functional, organism-based; details: dose 3-10 mg/kg, route ig, DDE = dose-dependent effect
[23] = Cmax in 12 hr starved C57 mouse at 5 mg/kg, iv measured for 0.083 to 24 hrs post-dose by LC-MS-MS analysis; format: ADME, organism-based; parameters: time upper 24 hrs, time lower 0.083 hrs, dose 5 mg/kg, route iv; details: in vivo
[24] = test system: Mus musculus; assay: Antiinflammatory activity against DSS-induced C57BL/6 mouse model of acute ulcerative colitis assessed as inhibition ratio of IL-1beta protein expression at 10 mg/kg, IG via gavage measured after 7 days by ELISA relative to control; format: functional; parameters: scale not given: the % may be the effect or the level left; details: time 7 day
[25] = test system: Mus musculus; assay: Anti-ulcerative colitis activity in DSS-induced C57BL/6 mouse ulcerative colitis model assessed as histopathological score recovery ratio at 3 mg/kg, IG via gavage measured after 7 days by H and E staining method relative to control; format: functional; details: time 7 day
[26] = test system: Mus musculus; assay: Antiinflammatory activity against DSS-induced C57BL/6 mouse model of acute ulcerative colitis assessed as reduction in serum TNF-alpha levels administered intragastrically via gavage measured after 7 days by ELISA; format: functional, organism-based; details: dose 1-10 mg/kg, route ig, time 7.0 day, DDE = dose-dependent effect
[27] = test system: Mus musculus; assay: Anti-ulcerative colitis activity in IL-10-/- C57BL/6 mouse model of ulcerative colitis assessed as histopathological score recovery ratio at 3 mg/kg, IG via gavage for 8 weeks relative to control; format: functional
[28] = Metabolic stability in human liver microsomes assessed as intrinsic clearance at […] measured upto 60 mins in presence of NADPH by HPLC-MS analysis; format: ADME, Microsome; parameters: dose or concentration left out as unconfirmed; details: 1 h
[29] = test system: Mus musculus; assay: Anti-ulcerative colitis activity in DSS-induced C57BL/6 mouse ulcerative colitis model assessed as histopathological score recovery ratio at 10 mg/kg, IG via gavage measured after 7 days by H and E staining method relative to control; format: functional; details: time 7 day

COc1ccc([C@H]2CC(=O)c3cc(OC)cc(OC)c32)cc1
Activity [1]: Active | Activity [2]: 68% | Activity [3]: 56.7% | Activity [4]: 90.5% | Activity [5]: 22.7% | Activity [6]: Dde | Activity [7]: Non-Toxic | Activity [8]: Dde | inhibition [9]: Dde | Activity [10]: 52.3% | Activity [11]: 73.2% | inhibition [12]: Dde | bioavailability [13]: 33% | Activity [14]: 68.6% | Activity [15]: 95.6% | Activity [16]: 33.3% | Activity [17]: 3.2 | inhibition [18]: Dde | CLH [19]: 121.4 mL/min/g | Activity [20]: 78.5% | Activity [21]: 22.7% | Activity [22]: Dde | Cmax [23]: 2920 ng/mL | Activity [24]: 64.4% | Activity [25]: 41.7% | Activity [26]: Dde | Activity [27]: 50.5% | CLH [28]: 46 mL/min/g | Activity [29]: 70%
